Like-named read-outs stand apart in the source and are kept apart here.
Tests used:
[1] = tested on: MDA-MB-231 (human breast cancer); assay: MTT cytotoxicity assay, MDA-MB-231; type: cell-based; details: MDA-MB-231 cells, 50% cell growth inhibition after 72 h of drug exposure
Procedure: (§1) The cytotoxic activities of target compounds were evaluated against HT-29 (human colon cancer), MDA-MB-231 (human breast cancer), U87MG (human glioblastoma), H460 (human lung cancer), A549 (non-small-cell lung adenocarcinoma), HL-60 (human leukemic) cancer cell lines and one normal cell line WI-38 (human fetal lung fibroblasts) together with references DHA and cisplatin by a MTT assay.
(§2) The cytotoxic activities of compounds 3a–h and 6a–j were evaluated with the HT-29, MDA-MB-231, U87MG, H460, A549, HL-60 cancer cell lines and one normal cell line, WI-38, by the standard MTT assay in vitro [20], with DHA as the positive control. The cell lines were cultured in minimum essential medium (MEM) supplement with 10% fetal bovine serum (FBS). Approximately 4 × 10^3 cells, suspended in MEM medium, were plated on to each well of a 96-well plate and incubated in 5% CO2 at 37 °C for 24 h. The test compounds at indicated final concentrations were added to the culture medium and the cell cultures were continued for 72 h. Fresh MTT was added to each well at a terminal concentration of 5 μg/mL and incubated with cells at 37 °C for 4 h. The formazan crystals were dissolved in 100 μL DMSO each well, and the absorbency at 492 nm (for absorbance of MTT formazan) and 630 nm (for the reference wavelength) was measured with the ELISA reader. All of the compounds were tested twice in each of the cell lines. The results expressed as IC50 (inhibitory concentration 50%) were the averages of two determinations and calculated using the Bacus Laboratories Incorporated Slide Scanner (Bliss) software.

[2] = tested on: HT-29 (human colon cancer); assay: MTT cytotoxicity assay, HT-29; type: cell-based; details: HT-29 cells, 50% cell growth inhibition after 72 h of drug exposure, read-out: IC50(μM) HT29
Procedure: as §1, §2

[3] = tested on: U87MG (human glioblastoma); assay: MTT cytotoxicity assay, U87MG; type: cell-based; details: for IC50: U87MG cells, 50% cell growth inhibition after 72 h of drug exposure, MTT
Procedure: as §1, §2

[4] = tested on: H460 (human lung cancer); assay: MTT cytotoxicity assay, H460; type: cell-based; details: for IC50: H460 cells, 50% cell growth inhibition after 72 h of drug exposure, MTT
Procedure: as §1, §2

[5] = tested on: A549 (non-small-cell lung adenocarcinoma); assay: MTT cytotoxicity assay, A549; type: cell-based, human; details: A549 cells, 50% cell growth inhibition after 72 h of drug exposure
Procedure: as §1, §2

[6] = tested on: HL-60 (human leukemic); assay: MTT cytotoxicity assay, HL-60; type: cell-based; details: for IC50: HL-60 cells, 50% cell growth inhibition after 72 h of drug exposure, MTT
Procedure: as §1, §2

[7] = tested on: WI-38 (human fetal lung fibroblasts); assay: MTT cytotoxicity assay, normal cell line WI-38; type: cell-based; details: normal WI-38 cells, 50% cell growth inhibition after 72 h of drug exposure, read-out: IC50(μM) WI38
Procedure: as §1, §2

| Compound | IC50 ([1]; Homo sapiens) | IC50 ([2]; Homo sapiens) | IC50 ([3]; Homo sapiens, U-87 MG) | IC50 ([4]; Homo sapiens, NCI-H460) | IC50 ([5]; Homo sapiens) | IC50 ([6]; Homo sapiens) | IC50 ([7]; Homo sapiens) | melting point | activity fold higher than that of benzamide analog 6c ([3]; U87MG, versus 6c) | activity fold higher than that of benzamide analog 6c ([4]; H460, versus 6c) | activity fold higher than that of benzamide analog 6c ([6]; HL-60, versus 6c) | selectivity index (IC50 normal cell/IC50 cancer cell) ([6]; WI-38 normal cells versus HL-60) | IC50 [1] | IC50 [2] | IC50 [3] | IC50 [4] | IC50 [5] | IC50 [6] | IC50 [7] |
| --- | --- | --- | --- | --- | --- | --- | --- | --- | --- | --- | --- | --- | --- | --- | --- | --- | --- | --- | --- |
| C[C@@H]1CC[C@H]2[C@@H](C)C(OCCOc3ccc(/C=C/S(=O)(=O)Nc4ccc(Cl)cc4)cc3)O[C@@H]3O[C@@]4(C)CC[C@@H]1[C@]32OO4 (stereo partly drawn) [Compound 3f, (E)-2-(4-(2-(10β-Dihydroartemisinoxy)ethoxy)phenyl)-N-(4-chlorophenyl)ethenesulfonamide] | 1.04 µM | 0.42 µM | 0.79 µM | 1.41 µM | 3.52 µM | 0.08 µM | 19.9 µM | 138 to 141 °C |  |  |  |  |  |  |  |  |  |  |  |
| C[C@@H]1CC[C@H]2[C@@H](C)C(OCCNC(=O)c3ccc(COc4ccc(/C=C/S(=O)(=O)Nc5ccc(OC(F)(F)F)cc5)cc4)cc3)O[C@@H]3O[C@@]4(C)CC[C@@H]1[C@]32OO4 (stereo partly drawn) [Compound 6c, (E)-N-(2-(10β-Dihydroartemisinoxy)ethyl)-4((4-(2-(N-(4-trifluoromethoxyphenyl)sulfamoyl)vinyl)phenoxy)methyl)benzamide] | 0.49 µM | 0.29 µM | 3.71 µM | 2.7 µM | 1.57 µM | 0.09 µM | 28.2 µM |  |  |  |  |  |  |  |  |  |  |  |  |
| C[C@@H]1CC[C@H]2[C@@H](C)C(OCCNC(=O)c3ccc(COc4ccc(/C=C/S(=O)(=O)Nc5ccc(F)c(C(F)(F)F)c5)cc4)cc3)O[C@@H]3O[C@@]4(C)CC[C@@H]1[C@]32OO4 (stereo partly drawn) [Compound 6j, (E)-N-(2-(10β-Dihydroartemisinoxy)ethyl)-4((4-(2-(N-(3-trifluoromethyl-4fluorophenyl)sulfamoyl)vinyl)phenoxy)methyl)benzamide] | 1.05 µM | 0.38 µM | 3.27 µM | 5.31 µM | 2.78 µM | 1.27 µM | 30.4 µM | 152 to 154 °C |  |  |  |  |  |  |  |  |  |  |  |
| C[C@@H]1CC[C@H]2[C@@H](C)C(OCCOc3ccc(/C=C/S(=O)(=O)Nc4cccc(Cl)c4)cc3)O[C@@H]3O[C@@]4(C)CC[C@@H]1[C@]32OO4 (stereo partly drawn) [Compound 3b, (E)-2-(4-(2-(10β-Dihydroartemisinoxy)ethoxy)phenyl)-N-(3-chlorophenyl)ethenesulfonamide] | 1.61 µM | 0.78 µM | 3.51 µM | 7.32 µM | 4.48 µM | 0.75 µM | 23.9 µM | 137 to 138 °C |  |  |  |  |  |  |  |  |  |  |  |
| C[C@@H]1CC[C@H]2[C@@H](C)C(OCCNC(=O)c3ccc(COc4ccc(/C=C/S(=O)(=O)Nc5ccc(Cl)cc5)cc4)cc3)O[C@@H]3O[C@@]4(C)CC[C@@H]1[C@]32OO4 (stereo partly drawn) [Compound 6f, (E)-N-(2-(10β-Dihydroartemisinoxy)ethyl)-4((4-(2-(N-(4-chlorophenyl)sulfamoyl)vinyl)phenoxy)methyl)benzamide] | 2.38 µM | 0.92 µM | 1.59 µM | 1.77 µM | 5.72 µM | 1.33 µM | 24.7 µM | 138 to 141 °C |  |  |  |  |  |  |  |  |  |  |  |
| C[C@@H]1CC[C@H]2[C@@H](C)C(OCCNC(=O)c3ccc(COc4ccc(/C=C/S(=O)(=O)Nc5ccccc5)cc4)cc3)O[C@@H]3O[C@@]4(C)CC[C@@H]1[C@]32OO4 (stereo partly drawn) [Compound 6a, (E)-N-(2-(10β-Dihydroartemisinoxy)ethyl)-4((4-(2-(N-phenylsulfamoyl)vinyl)phenoxy)methyl)benzamide] | 2.26 µM | 0.98 µM | 6.47 µM | 5.28 µM | 3.21 µM | 2.41 µM | 20 µM | 142 to 145 °C |  |  |  |  |  |  |  |  |  |  |  |
| Cc1ccc(F)c(NS(=O)(=O)/C=C/c2ccc(OCCOC3O[C@@H]4O[C@@]5(C)CC[C@H]6[C@H](C)CC[C@@H]([C@H]3C)[C@@]46OO5)cc2)c1 (stereo partly drawn) [Compound 3d, (E)-2-(4-(2-(10β-Dihydroartemisinoxy)ethoxy)phenyl)-N-(2-fluoro-5-methylphenyl)ethenesulfonamide] | 1.27 µM | 1.78 µM | 5.71 µM | 4.29 µM | 3.64 µM | 0.84 µM | 20.5 µM | 138 to 140 °C |  |  |  |  |  |  |  |  |  |  |  |
| Cc1ccccc1NS(=O)(=O)/C=C/c1ccc(OCc2ccc(C(=O)NCCOC3O[C@@H]4O[C@@]5(C)CC[C@H]6[C@H](C)CC[C@@H]([C@H]3C)[C@@]46OO5)cc2)cc1 (stereo partly drawn) [Compound 6e, (E)-N-(2-(10β-Dihydroartemisinoxy)ethyl)-4((4-(2-(N-(2-methylphenyl)sulfamoyl)vinyl)phenoxy)methyl)benzamide] | 2.1 µM | 2.09 µM | 3.65 µM | 1.92 µM | 5.47 µM | 3.21 µM | 16.4 µM | 143 to 145 °C |  |  |  |  |  |  |  |  |  |  |  |
| C[C@@H]1CC[C@H]2[C@@H](C)C(OCCNC(=O)c3ccc(COc4ccc(/C=C/S(=O)(=O)Nc5c(Cl)cccc5Cl)cc4)cc3)O[C@@H]3O[C@@]4(C)CC[C@@H]1[C@]32OO4 (stereo partly drawn) [Compound 6h, (E)-N-(2-(10β-Dihydroartemisinoxy)ethyl)-4((4-(2-(N-(2,6-dichlorophenyl)sulfamoyl)vinyl)phenoxy)methyl)benzamide] | 0.88 µM | 0.44 µM | 3.12 µM | 1.21 µM | 2.34 µM | 0.18 µM | 23.5 µM | 151 to 153 °C |  |  |  |  |  |  |  |  |  |  |  |
| C[C@@H]1CC[C@H]2[C@@H](C)C(OCCOc3ccc(/C=C/S(=O)(=O)Nc4c(Cl)cccc4Cl)cc3)O[C@@H]3O[C@@]4(C)CC[C@@H]1[C@]32OO4 (stereo partly drawn) [Compound 3h, (E)-2-(4-(2-(10β-Dihydroartemisinoxy)ethoxy)phenyl)-N-(2,6-dichlorophenyl)ethenesulfonamide] | 1.07 µM | 0.49 µM | 2.51 µM | 1.28 µM | 4.33 µM | 0.14 µM | 20.7 µM | 144 to 146 °C |  |  |  |  |  |  |  |  |  |  |  |
| C[C@H]1[C@@H](O)O[C@@H]2O[C@@]3(C)CC[C@H]4[C@H](C)CC[C@@H]1[C@@]24OO3 [DHA, dihydroartemisinin] | 9.8 µM | 5.6 µM | 15.8 µM | 12.4 µM | 10.1 µM | 5.29 µM | > 100 µM |  |  |  |  |  |  |  |  |  |  |  |  |
| C[C@@H]1CC[C@H]2[C@@H](C)C(OCCOc3ccc(/C=C/S(=O)(=O)Nc4ccc(OC(F)(F)F)cc4)cc3)O[C@@H]3O[C@@]4(C)CC[C@@H]1[C@]32OO4 (stereo partly drawn) [Compound 3c, (E)-2-(4-(2-(10β-Dihydroartemisinoxy)ethoxy)phenyl)-N-(4-trifluoromethoxyphenyl)ethenesulfonamide] | 0.39 µM | 0.2 µM | 1.59 µM | 0.97 µM | 2.11 µM | 0.05 µM | 37.5 µM |  | 2 fold | 3 fold | 2 fold | 750 |  |  |  |  |  |  |  |
| COc1cccc(NS(=O)(=O)/C=C/c2ccc(OCc3ccc(C(=O)NCCOC4O[C@@H]5O[C@@]6(C)CC[C@H]7[C@H](C)CC[C@@H]([C@H]4C)[C@@]57OO6)cc3)cc2)c1 (stereo partly drawn) [Compound 6i, (E)-N-(2-(10β-Dihydroartemisinoxy)ethyl)-4((4-(2-(N-(3-methoxyphenyl)sulfamoyl)vinyl)phenoxy)methyl)benzamide] | 8.89 µM | 8.95 µM | > 100 µM | 16.3 µM | 11.3 µM | 8.53 µM | 19.2 µM | 144 to 145 °C |  |  |  |  |  |  |  |  |  |  |  |
| N.N.[Cl][Pt][Cl] [Cisplatin, cisplatin, reference compound] |  |  |  |  |  |  |  |  |  |  |  |  | 6.82 µM | 10.3 µM | 8.21 µM | 7.55 µM | 4.31 µM | 9.28 µM | 51.2 µM |

Reference: PMC6270595, “Synthesis and Cytotoxicity of Novel 10-Substituted Dihydroartemisinin Derivatives Containing N-Arylphenyl-ethenesulfonamide Groups” (Molecules, 2013)
